Several values for one entry are separate records, joined by “and”; a condition that tells them apart may be missing. Identical values can stand only once. Like-named read-outs stand apart in the source and are kept apart here.
Columns and labels:
NHBE = assay: MTT assay, growth inhibition / viability of normal HBE cells
Protocol: Cells and Cell Cultures. […] Normal HBE (NHBE) cells were purchased from Clontech (Palo Alto, Calif.). […] Cells were grown on tissue culture plasticware (Falcon; Bector, Dickinson, Bedford, Mass.) at 37° C. in a humidified atmosphere with 5% C02. For the analyses of growth inhibition, cell cycle, and induction of apoptosis by deguelin, NHBE cells, HBE cell lines, and squamous HBE cells were cultured in KSFM (Life Technologies) containing 2 μg/ml of EGF and bovine pitutary extract.
Cell Treatment with Deguelin and Determination of Growth Inhibition. To measure the effects of deguelin on cell proliferation, NHBE, 1799 cells, 1198 cells, and 1170 cells were transferred onto 96-well plates at densities ranging from 2×10^3 to 4×10^3 cells/well. After 1 day, the cells were changed to the fresh medium containing various concentrations of deguelin dissolved in DMSO (final concentration, 0.1%). Control cultures received 0.1% dimethyl sulfoxide (DMSO) as did the deguelin-treated cultures. […] After 1 day of infection, cells were treated with 10^−7 M or 10^−6 M of deguelin, or 0.1% DMSO as a control, and then incubated for 2 days. […] Six replicate wells were used for each analysis.

[1] = tested on: premalignant (1799, 1198) and malignant (1170) HBE cell lines; assay: MTT assay, growth of premalignant and malignant HBE cell lines; type: cell-based; conditions: premalignant and malignant HBE cells; unpublished data
Excerpt: Cells and Cell Cultures. […] Tumors developed 6 months later. […] (Klein-Szanto et al., 1992).

[2] = tested on: genes controlled by the TPA response element (TRE); conditions: cited from earlier work
[3] = tested on: ovarian, breast and lung cancers; conditions: cited from earlier work
NSCLC cells = assay: MTT assay, growth inhibition of NSCLC cells by deguelin and deguelin derivatives (Table 2, FIG. 7); type: cell-based; conditions: 0.01-1 μM, 3 days
H596 = assay: MTT assay, growth inhibition by deguelin or deguelin derivatives; type: cell-based; conditions: 3 days
H322 = assay: as above; type: cell-based; conditions: 3 days
H1299 = assay: as above; type: cell-based; conditions: 3 days
A549 = assay: as above; type: cell-based; conditions: 3 days
H358 = assay: as above; type: cell-based; conditions: 3 days
H460 = assay: as above; type: cell-based; conditions: 3 days

O=c1cc(N2CCOCC2)oc2c(-c3ccccc3)cccc12 [LY294002, reference compound]
cytotoxicity on NHBE cells (NHBE): significant cytotoxicity
concentration required to induce detectable cell growth inhibition [1]: more than 10 μM

N#CC(=C(N)Sc1ccccc1N)C(C#N)=C(N)Sc1ccccc1N [U0126, 1,4diamino-2,3-dicyano-1,4 bis[2-aminophenylthio]butadiene]
concentration inhibiting PMA-induction of TRE-controlled genes [2]: 1 to 2 µM

CC(=O)O[C@H]1C(=O)[C@@]2(C)[C@H]([C@H](OC(=O)c3ccccc3)[C@]3(O)C[C@H](OC(=O)[C@H](O)[C@@H](NC(=O)c4ccccc4)c4ccccc4)C(C)=C1C3(C)C)[C@]1(OC(C)=O)CO[C@@H]1C[C@@H]2O [taxol, Paclitaxel]
response rate ([3]; advanced drug refractory ovarian cancer): 19-36%
response rate ([3]; previously treated metastatic breast cancer): 27-62%
response rate ([3]; various lung cancers): 21-37%

methoxyrot-2′-enoic acid
inhibiting cell growth in NSCLC cells, ranking among the derivatives (NSCLC cells): most effective
% control (H596; H596, 0.01 μM): 6%
MTT assay reading, Average (H596; H596, 0.01 μM): 0.0931
MTT assay reading, individual replicate (H596; H596, 0.01 μM): 0.037 and 0.055 and 0.067 and 0.122 and 0.101 and 0.118
% control (H596; H596, 0.1 μM): 20%
MTT assay reading, Average (H596; H596, 0.1 μM): 0.3181
MTT assay reading, individual replicate (H596; H596, 0.1 μM): 0.287 and 0.3 and 0.326 and 0.366 and 0.289 and 0.321 and 0.338
% control (H596; H596, 0.5 μM): 23%
MTT assay reading, Average (H596; H596, 0.5 μM): 0.3653
MTT assay reading, individual replicate (H596; H596, 0.5 μM): 0.28 and 0.434 and 0.344 and 0.446 and 0.348 and 0.383 and 0.322
% control (H596; H596, 1 μM): 26%
MTT assay reading, Average (H596; H596, 1 μM): 0.405
MTT assay reading, individual replicate (H596; H596, 1 μM): 0.422 and 0.37 and 0.481 and 0.573 and 0.319 and 0.328 and 0.342
% control (H322; H322, 0.01 μM): 97%
MTT assay reading, Average (H322; H322, 0.01 μM): 0.8434
MTT assay reading, individual replicate (H322; H322, 0.01 μM): 0.729 and 0.806 and 0.748 and 0.791 and 0.898 and 1.011 and 0.921
% control (H322; H322, 0.1 μM): 55%
MTT assay reading, Average (H322; H322, 0.1 μM): 0.4803
MTT assay reading, individual replicate (H322; H322, 0.1 μM): 0.322 and 0.412 and 0.406 and 0.52 and 0.585 and 0.58 and 0.537
% control (H322; H322, 0.5 μM): 43%
MTT assay reading, Average (H322; H322, 0.5 μM): 0.3787
MTT assay reading, individual replicate (H322; H322, 0.5 μM): 0.32 and 0.314 and 0.388 and 0.393 and 0.466 and 0.443 and 0.327
% control (H322; H322, 1 μM): 40%
MTT assay reading, Average (H322; H322, 1 μM): 0.3461
MTT assay reading, individual replicate (H322; H322, 1 μM): 0.271 and 0.348 and 0.409 and 0.352 and 0.361 and 0.324 and 0.358
% control (H1299; H1299, 0.01 μM): 0.48%
MTT assay reading, Average (H1299; H1299, 0.01 μM): 0.7507
MTT assay reading, individual replicate (H1299; H1299, 0.01 μM): 0.707 and 0.725 and 0.796 and 0.793 and 0.86 and 0.656 and 0.718
% control (H1299; H1299, 0.1 μM): 0.29%
MTT assay reading, Average (H1299; H1299, 0.1 μM): 0.4579
MTT assay reading, individual replicate (H1299; H1299, 0.1 μM): 0.401 and 0.474 and 0.434 and 0.387 and 0.526 and 0.465 and 0.518
% control (H1299; H1299, 0.5 μM): 0.25%
MTT assay reading, Average (H1299; H1299, 0.5 μM): 0.3934
MTT assay reading, individual replicate (H1299; H1299, 0.5 μM): 0.425 and 0.405 and 0.342 and 0.497 and 0.278 and 0.503 and 0.304
% control (H1299; H1299, 1 μM): 0.22%
MTT assay reading, Average (H1299; H1299, 1 μM): 0.3396
MTT assay reading, individual replicate (H1299; H1299, 1 μM): 0.29 and 0.384 and 0.395 and 0.301 and 0.289 and 0.346 and 0.372
MTT assay reading, Average (A549; A549, 0.01 μM): 0.2983
MTT assay reading, individual replicate (A549; A549, 0.01 μM): 0.286 and 0.219 and 0.272 and 0.298 and 0.36 and 0.344 and 0.309
MTT assay reading, Average (A549; A549, 0.1 μM): 0.6833
MTT assay reading, individual replicate (A549; A549, 0.1 μM): 0.693 and 0.467 and 0.636 and 0.687 and 0.753 and 0.796 and 0.751
MTT assay reading, Average (A549; A549, 0.5 μM): 0.5794
MTT assay reading, individual replicate (A549; A549, 0.5 μM): 0.542 and 0.837 and 0.514 and 0.534 and 0.588 and 0.579 and 0.462
MTT assay reading, Average (A549; A549, 1 μM): 0.6031
MTT assay reading, individual replicate (A549; A549, 1 μM): 0.783 and 0.583 and 0.67 and 0.758 and 0.515 and 0.477 and 0.436
% control (H358; H358, 0.01 μM): 69%
MTT assay reading, Average (H358; H358, 0.01 μM): 0.5804
MTT assay reading, individual replicate (H358; H358, 0.01 μM): 0.414 and 0.525 and 0.579 and 0.603 and 0.68 and 0.612 and 0.65
% control (H358; H358, 0.1 μM): 29%
MTT assay reading, Average (H358; H358, 0.1 μM): 0.2433
MTT assay reading, individual replicate (H358; H358, 0.1 μM): 0.196 and 0.173 and 0.287 and 0.284 and 0.293 and 0.247 and 0.223
% control (H358; H358, 0.5 μM): 34%
MTT assay reading, Average (H358; H358, 0.5 μM): 0.2884
MTT assay reading, individual replicate (H358; H358, 0.5 μM): 0.212 and 0.331 and 0.284 and 0.282 and 0.478 and 0.2 and 0.232
% control (H358; H358, 1 μM): 36%
MTT assay reading, Average (H358; H358, 1 μM): 0.3047
MTT assay reading, individual replicate (H358; H358, 1 μM): 0.283 and 0.248 (2×) and 0.306 and 0.3 and 0.343 and 0.405
% control (H460; H460, 0.01 μM): 0.11%
MTT assay reading, Average (H460; H460, 0.01 μM): 0.1897
MTT assay reading, individual replicate (H460; H460, 0.01 μM): 0.037 and 0.62 and 0.096 and 0.098 and 0.122 and 0.16 and 0.195
% control (H460; H460, 0.1 μM): 0.08%
MTT assay reading, Average (H460; H460, 0.1 μM): 0.1399
MTT assay reading, individual replicate (H460; H460, 0.1 μM): 0.139 and 0.105 and 0.129 and 0.16 and 0.133 and 0.147 and 0.166
% control (H460; H460, 0.5 μM): 0.16%
MTT assay reading, Average (H460; H460, 0.5 μM): 0.2786
MTT assay reading, individual replicate (H460; H460, 0.5 μM): 0.297 and 0.26 and 0.302 and 0.283 and 0.291 and 0.282 and 0.235
% control (H460; H460, 1 μM): 0.17%
MTT assay reading, Average (H460; H460, 1 μM): 0.2933
MTT assay reading, individual replicate (H460; H460, 1 μM): 0.276 and 0.322 and 0.282 and 0.298 and 0.311 and 0.29 and 0.274

From patent publication US20060128792A1, “Deguelin as a chemopreventive agent for lung cancer” (priority 2002, published 2006)
